Assay results reported in PubChem BioAssay AID1963839 (Molecular Pharmacology Branch, DTP, NCI, 2024).
pIC50: −log10 of the molar value.

System: 817829-284-R-J1-PDC complex spheroid viability
Test: Anticancer human tumor 817829-284-R-J1-PDC patient-derived colon adenocarcinoma cell line growth inhibition [POLQ]
Settings: for pIC50: curve of first compound; for viability, T/C: stronger effect = lower value
Description: Multicellular complex tumor spheroid response to Polymerase (POL) inhibitors (novobiocin, ART-558, RP6685) in combination with a variety of drugs and investigational agents in selected tumor cell lines
The POL inhibitors (novobiocin, ART-558, and RP6685) were evaluated both individually and in combination with standard of care and investigational anticancer small molecules within a complex spheroid model of solid tumors. . Complex spheroids include a stromal component modeled by human endothelial cells (HUVEC) and fibroblasts modeled by human mesenchymal stem cells (MSCs). The concentration ranges selected for each drug and investigational agent were based upon clinically achievable concentrations if the clinical Cmax of the agent was known.
Compounds. The drugs and investigational agents: novobiocin (NSC847541), ART-558 (NSC835418), RP-6685 (NSC848927), peposertib (NSC802822), ceralasertib (NSC780249), elimusertib (NSC800525), camonsertib (NSC841442), AZD-1390 (NSC803789), olaparib (NSC753686), talazoparib (NSC767125), rucaparib (NSC756644), sotorasib (NSC818433), MRTX-1133 (NSC836407), SN-38 (NSC673596), topotecan (NSC609699), epotoside (NSC141540), doxorubicin (NSC123127), gemcitabine (NSC613327), 5-fluorouracil (NSC19893), paclitaxel (NSC125973), vemurafenib (NSC761431), MSA-2 (NSC828583), SN-011 (NSC837082), adavosertib (NSC754352), prexasertib (NSC758257), carboplatin (NSC241240) and oxaliplatin (NSC266046), were obtained from the National Cancer Institute (NCI) Developmental Therapeutics Program Chemical Repository (21). The FDA-approved anticancer drug set is available from the Developmental Therapeutics Program at https://dtp.cancer.gov/organization/dscb/obtaining/. […] The stock solutions were prepared in dimethyl sulfoxide (DMSO, Sigma-Aldrich, St. Louis, MO, cat. D2650), except for the platinum compounds which were prepared in saline (Quality Biological, Gaithersburg, MD, cat. 114-055-101), at 800-fold the tested concentration and stored at -70 degrees C prior to their use. All drugs and investigational agents were tested over a range starting from a high concentration at or near the clinical Cmax and decreasing in half-log increments. If the clinical Cmax for an agent had not been determined, the highest concentration tested was 10 microM, except for SN-38, which was tested at a high concentration of 1 microM.
Cell Culture. All cells were maintained in an incubator at 37 degrees C and 5% CO2 with 95% humidity. The PDC lines were cultured according to standard operating procedures established by the NCI PDMR (https://pdmr.cancer.gov). Table 3 of the manuscript, lists the cell lines along with the number of the three cell types plated to form the mct-spheroids and media for tumor cell growth. After thawing, all PDC lines, except 997537-175-T-J1-PDC and 415267-285-R-J2-PDC, were cultured in Matrigel-coated flasks prepared with a working solution of 1X Ham's F-12 nutrient mix, without supplementation (Thermo Fisher Scientific, cat. 11765054), 100 U/mL penicillin-streptomycin (Thermo Fisher Scientific, cat. 15140122), and 2.5% Matrigel (Corning Inc., Corning, NY, cat. 354248) for the first three passages. The two PDC lines 997537-175-T-J1-PDC and 415267-285-R-J2-PDC were cultured on uncoated flasks. The 857933-349-R-J2-PDC line was cultured in 6C/Colon 1B media containing advanced DMEM/F-12 (Thermo Fisher Scientific, cat. 12634028), 10 mM HEPES (Thermo Fisher Scientific, cat. 15630080), 1X GlutaMAX supplement (Thermo Fisher Scientific, cat. 35050061), 0.1 mg/mL primocin (InvivoGen, San Diego, CA, cat. ant-pm-2), 10% defined fetal bovine serum, heat inactivated (HyClone Laboratories Inc., Logan, UT, cat. SH30070.03HI), 50% L-WRN conditioned media (ATCC, cat. CRL-3276), 1.25 mM N-Acetyl-L-cysteine (Sigma-Aldrich, cat. A9165), 10 mM nicotinamide (Sigma-Aldrich, cat. N0636), 1X B-27 supplement (Thermo Fisher Scientific, cat. 17504044), 1X N-2 supplement (Thermo Fisher Scientific, cat. […]

[1] = second compound 0.0316 µM, first compound 0.0316 µM
[2] = second compound 0.0316 µM, first compound 0.1 µM
[3] = second compound 0.0316 µM, first compound 0.316 µM
[4] = second compound 0.0316 µM, first compound 1 µM
[5] = second compound 0.1 µM, first compound 0.0316 µM
[6] = second compound 0.1 µM, first compound 0.1 µM
[7] = second compound 0.1 µM, first compound 0.316 µM
[8] = second compound 0.1 µM, first compound 1 µM
[9] = second compound 0.316 µM, first compound 0.0316 µM
[10] = second compound 0.316 µM, first compound 0.1 µM
[11] = second compound 0.316 µM, first compound 0.316 µM
[12] = second compound 0.316 µM, first compound 1 µM
[13] = second compound 1 µM, first compound 0.0316 µM
[14] = second compound 1 µM, first compound 0.1 µM
[15] = second compound 1 µM, first compound 0.316 µM
[16] = second compound 1 µM, first compound 1 µM
[17] = second compound 3.16 µM, first compound 0.0316 µM
[18] = second compound 3.16 µM, first compound 0.1 µM
[19] = second compound 3.16 µM, first compound 0.316 µM
[20] = second compound 3.16 µM, first compound 1 µM
[21] = second compound 10 µM, first compound 0.0316 µM
[22] = second compound 10 µM, first compound 0.1 µM
[23] = second compound 10 µM, first compound 0.316 µM
[24] = second compound 10 µM, first compound 1 µM
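Also: spheroids exposed to compounds for 7 days.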
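For viability, T/C in this document: 100% = DMSO vehicle-treated spheroids.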

SMILES: C=CCn1c(=O)c2cnc(Nc3ccc(N4CCN(C)CC4)cc3)nc2n1-c1cccc(C(C)(C)O)n1 + COC1C(OC(N)=O)C(O)C(Oc2ccc3c(O)c(NC(=O)c4ccc(O)c(CC=C(C)C)c4)c(=O)oc3c2C)OC1(C)C
- pIC50 (second compound 0.0316 µM): 6.79
- pIC50 (second compound 0.1 µM): 6.84
- pIC50 (second compound 0.316 µM): 6.75
- pIC50 (second compound 1 µM): 6.72
- pIC50 (second compound 3.16 µM): 6.75
- pIC50 (second compound 10 µM): 6.88
- viability, T/C (second compound 0.0316 µM, first compound 0.00316 µM): 93%
- viability, T/C (second compound 0.0316 µM, first compound 0.01 µM): 74.8%
- viability, T/C [1]: 91.3%
- viability, T/C [2]: 58%
- viability, T/C [3]: 33.6%
- viability, T/C [4]: 7.07%
- viability, T/C (second compound 0.1 µM, first compound 0.00316 µM): 107%
- viability, T/C (second compound 0.1 µM, first compound 0.01 µM): 91.4%
- viability, T/C [5]: 87.2%
- viability, T/C [6]: 55.5%
- viability, T/C [7]: 32.3%
- viability, T/C [8]: 6.47%
- viability, T/C (second compound 0.316 µM, first compound 0.00316 µM): 100%
- viability, T/C (second compound 0.316 µM, first compound 0.01 µM): 96.8%
- viability, T/C [9]: 96.6%
- viability, T/C [10]: 72%
- viability, T/C [11]: 26.7%
- viability, T/C [12]: 6%
- viability, T/C (second compound 1 µM, first compound 0.00316 µM): 82.8%
- viability, T/C (second compound 1 µM, first compound 0.01 µM): 95.9%
- viability, T/C [13]: 110%
- viability, T/C [14]: 70.6%
- viability, T/C [15]: 32.2%
- viability, T/C [16]: 7.21%
- viability, T/C (second compound 3.16 µM, first compound 0.00316 µM): 109%
- viability, T/C (second compound 3.16 µM, first compound 0.01 µM): 107%
- viability, T/C [17]: 83%
- viability, T/C [18]: 69.7%
- viability, T/C [19]: 32.2%
- viability, T/C [20]: 7.29%
- viability, T/C (second compound 10 µM, first compound 0.00316 µM): 67.5%
- viability, T/C (second compound 10 µM, first compound 0.01 µM): 96.1%
- viability, T/C [21]: 69.7%
- viability, T/C [22]: 55.2%
- viability, T/C [23]: 30.8%
- viability, T/C [24]: 8.11%

SMILES: CNCc1ccc(-c2[nH]c3cc(F)cc4c3c2CCNC4=O)cc1 + COC1C(OC(N)=O)C(O)C(Oc2ccc3c(O)c(NC(=O)c4ccc(O)c(CC=C(C)C)c4)c(=O)oc3c2C)OC1(C)C
- pIC50 (second compound 0.0316 µM): 5.18
- pIC50 (second compound 0.1 µM): < 5.00
- pIC50 (second compound 0.316 µM): < 5.00
- pIC50 (second compound 1 µM): 5.28
- pIC50 (second compound 3.16 µM): 5.29
- pIC50 (second compound 10 µM): 5.27
- viability, T/C [1]: 95.8%
- viability, T/C [2]: 94%
- viability, T/C [3]: 83%
- viability, T/C [4]: 76.8%
- viability, T/C (second compound 0.0316 µM, first compound 3.16 µM): 68.8%
- viability, T/C (second compound 0.0316 µM, first compound 10 µM): 40.2%
- viability, T/C [5]: 73.3%
- viability, T/C [6]: 102%
- viability, T/C [7]: 86%
- viability, T/C [8]: 55.2%
- viability, T/C (second compound 0.1 µM, first compound 3.16 µM): 72.8%
- viability, T/C (second compound 0.1 µM, first compound 10 µM): 53.3%
- viability, T/C [9]: 99.1%
- viability, T/C [10]: 108%
- viability, T/C [11]: 83.7%
- viability, T/C [12]: 80.4%
- viability, T/C (second compound 0.316 µM, first compound 3.16 µM): 74.3%
- viability, T/C (second compound 0.316 µM, first compound 10 µM): 51.5%
- viability, T/C [13]: 125%
- viability, T/C [14]: 91.6%
- viability, T/C [15]: 107%
- viability, T/C [16]: 81.8%
- viability, T/C (second compound 1 µM, first compound 3.16 µM): 80.3%
- viability, T/C (second compound 1 µM, first compound 10 µM): 22%
- viability, T/C [17]: 119%
- viability, T/C [18]: 109%
- viability, T/C [19]: 98.9%
- viability, T/C [20]: 103%
- viability, T/C (second compound 3.16 µM, first compound 3.16 µM): 58.5%
- viability, T/C (second compound 3.16 µM, first compound 10 µM): 38.2%
- viability, T/C [21]: 98%
- viability, T/C [22]: 99%
- viability, T/C [23]: 75.1%
- viability, T/C [24]: 90.1%
- viability, T/C (second compound 10 µM, first compound 3.16 µM): 73.9%
- viability, T/C (second compound 10 µM, first compound 10 µM): 23.1%
